Laboratory results as given in PubChem BioAssay AID192 (DTP/NCI, 2004).
Values joined by “and” are separate entries in the source; they are usually repeats but may differ in a detail not shown here. Equal values may be shown once. Inconclusive results and toxic doses are left out. How the source made its calls: active means survival T/C of 150% or more; inactive means T/C below 125% in these data.

Tested on: BDF1 mice, B16 melanoma ip, median survival T/C
Assay: NCI In Vivo Anticancer Drug Screen. Data for tumor model B16 Melanoma (intraperitoneal) in B6D2F1 (BDF1) mice
Conditions: endpoint: median survival time, higher = longer survival
How it was run: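 Each result divides a survival or tumor-size measurement in the compound-treated group by the same measurement in the vehicle group.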

[1] = dose: 12.5 mg/kg/injection, schedule: Q01DX009 (ip), vehicle: saline
[2] = dose: 25.0 mg/kg/injection, schedule: Q01DX009 (ip), vehicle: saline
[3] = dose: 50.0 mg/kg/injection, schedule: Q01DX009 (ip), vehicle: Klucel (hydroxypropylcellulose) (HPC)
[4] = dose: 100.0 mg/kg/injection, schedule: Q01DX009 (ip), vehicle: Klucel (hydroxypropylcellulose) (HPC)
[5] = dose: 200.0 mg/kg/injection, schedule: Q01DX009 (ip), vehicle: Klucel (hydroxypropylcellulose) (HPC)
[6] = dose: 25.0 mg/kg/injection, schedule: Q01DX009 (ip), vehicle: Klucel (hydroxypropylcellulose) (HPC)
[7] = dose: 100.0 mg/kg/injection, schedule: Q04DX003 (ip), vehicle: saline with Tween-80
[8] = dose: 200.0 mg/kg/injection, schedule: Q04DX003 (ip), vehicle: saline with Tween-80
[9] = dose: 3.12 mg/kg/injection, schedule: Q01DX009 (ip), vehicle: Klucel (hydroxypropylcellulose) (HPC)
[10] = dose: 6.25 mg/kg/injection, schedule: Q01DX009 (ip), vehicle: Klucel (hydroxypropylcellulose) (HPC)
[11] = dose: 12.5 mg/kg/injection, schedule: Q01DX009 (ip), vehicle: Klucel (hydroxypropylcellulose) (HPC)
[12] = dose: 6.25 mg/kg/injection, schedule: Q01DX009 (ip), vehicle: saline
[13] = dose: 50.0 mg/kg/injection, schedule: Q01DX009 (ip), vehicle: saline
[14] = dose: 100.0 mg/kg/injection, schedule: Q01DX009 (ip), vehicle: saline
[15] = dose: 400.0 mg/kg/injection, schedule: Q01DX009 (ip), vehicle: Klucel (hydroxypropylcellulose) (HPC)
[16] = dose: 1.56 mg/kg/injection, schedule: Q01DX009 (ip), vehicle: saline

Measured: T/C

C/C=C(/C)C(=O)O[C@H]1CCN2CC=C(COC(=O)[C@@](O)([C@H](C)OC)C(C)(C)O)[C@H]12
inactive: [1] 114 % of control | [2] 104 % of control

CC(=O)CC(=O)Nc1cc(Cl)ccc1C
inactive: [3] 105 % of control | [4] 92 % of control | [5] 94 % of control

CN(Cc1ccccc1)Cc1ccccc1
inactive: [6] 96 % of control | dose: 25.0 mg/kg/injection, schedule: Q04DX003 (ip), vehicle: Klucel (hydroxypropylcellulose) (HPC) 100 % of control | [3] 100 % of control | dose: 50.0 mg/kg/injection, schedule: Q04DX003 (ip), vehicle: Klucel (hydroxypropylcellulose) (HPC) 97 % of control | [4] 100 % of control | dose: 100.0 mg/kg/injection, schedule: Q04DX003 (ip), vehicle: Klucel (hydroxypropylcellulose) (HPC) 97 % of control

CCOC(=O)c1ccc(NC(=O)NC)cc1
inactive: [7] 93 % of control | [8] 86 % of control | dose: 400.0 mg/kg/injection, schedule: Q04DX003 (ip), vehicle: saline with Tween-80 86 % of control

N#CC(C#N)=C/C=C/c1cccc([N+](=O)[O-])c1
inactive: [9] 110 % of control | [10] 104 % of control | [11] 115 % of control

CP(=S)(c1ccccc1)P(C)(=S)c1ccccc1 (centres undefined)
inactive: [5] 119 % of control

NC(N)=Nc1cc2ccccc2c2ccccc12
inactive: dose: 5.0 mg/kg/injection, schedule: Q01DX009 (ip), vehicle: saline 93 % of control | dose: 10.0 mg/kg/injection, schedule: Q01DX009 (ip), vehicle: saline 111 % of control | dose: 20.0 mg/kg/injection, schedule: Q01DX009 (ip), vehicle: saline 120 % of control

CN(C)CCC(c1ccccc1)c1cc(Cl)ccn1 (centres undefined)
inactive: [12] 100 % of control | [1] 103 % of control | [2] 97 % of control | [13] 97 % of control | [14] 99 % of control

COC(=O)c1ccc(Cl)nc1
inactive: [4] 94 % of control | [15] 94 % of control

COC(=O)C1C2CC3c4[nH]c5cc(OC)ccc5c4CCN3CC2CC(OC)C1OC (centres undefined)
inactive: dose: 0.25 mg/kg/injection, schedule: Q01DX009 (ip), vehicle: saline 102 % of control | dose: 0.5 mg/kg/injection, schedule: Q01DX009 (ip), vehicle: saline 94 % of control | dose: 1.0 mg/kg/injection, schedule: Q01DX009 (ip), vehicle: saline 105 % of control | [16] 100 % of control | dose: 3.12 mg/kg/injection, schedule: Q01DX009 (ip), vehicle: saline 98 % of control | dose: 4.0 mg/kg/injection, schedule: Q01DX009 (ip), vehicle: saline 94 % of control and 100 % of control | [12] 103 % of control | dose: 8.0 mg/kg/injection, schedule: Q01DX009 (ip), vehicle: saline 104 % of control | [1] 106 % of control | dose: 16.0 mg/kg/injection, schedule: Q01DX009 (ip), vehicle: saline 99 % of control | [2] 101 % of control | dose: 32.0 mg/kg/injection, schedule: Q01DX009 (ip), vehicle: saline 94 % of control

O=C(O)CCC(=O)Nc1ccccc1C(F)(F)F
inactive: dose: 12.5 mg/kg/injection, schedule: Q04DX003 (ip), vehicle: saline with Tween-80 108 % of control | dose: 25.0 mg/kg/injection, schedule: Q04DX003 (ip), vehicle: saline with Tween-80 111 % of control | dose: 50.0 mg/kg/injection, schedule: Q04DX003 (ip), vehicle: saline with Tween-80 113 % of control | [7] 108 % of control | [8] 105 % of control

C[C@@H]1CC2=CC(=O)C=C[C@]2(C)[C@H]2CC[C@@]3(C)[C@@H](CC[C@]3(C)O)[C@H]12
inactive: [10] 107 % of control | [11] 103 % of control | [6] 102 % of control | [3] 95 % of control | [4] 93 % of control

NC(=O)CC(N)C(=O)O.[Cl-].[Cl-].[Cl-].[Cl-].[Pt+2] (centres undefined)
inactive: [16] 114 % of control | dose: 3.13 mg/kg/injection, schedule: Q01DX009 (ip), vehicle: saline 122 % of control

CSCCCCCCSC
inactive: [3] 93 % of control | [4] 105 % of control | [5] 106 % of control

C=CCOC(=O)C1CC(C(=O)OCC=C)C(C(=O)OCC=C)C1C(=O)OCC=C (centres undefined)
inactive: dose: 50.0 mg/kg/injection, schedule: Q01DX009 (ip), vehicle: other 96 % of control | dose: 100.0 mg/kg/injection, schedule: Q01DX009 (ip), vehicle: other 105 % of control | dose: 200.0 mg/kg/injection, schedule: Q01DX009 (ip), vehicle: other 98 % of control

CCCCCCCCCCCCCCCCCC(=O)NN
inactive: [11] 103 % of control | [6] 98 % of control | [3] 105 % of control | dose: 100.0 mg/kg/injection, schedule: Q01DX009 (ip), vehicle: carboxymethylcellulose (CMC) 94 % of control

O=C(Nc1ccc(F)cc1)c1cccc(C(=O)Nc2ccc(F)cc2)c1
inactive: [6] 114 % of control | [3] 101 % of control | [4] 96 % of control

S=P(NCCNP(=S)(N1CC1)N1CC1)(N1CC1)N1CC1
inactive: [11] 118 % of control | [6] 124 % of control

CN1CCC=C(C(=O)N2c3ccccc3Sc3ccc(Cl)cc32)C1
inactive: [12] 96 % of control | [1] 89 % of control

C=C1C(=O)OCC1(C(=O)OCC)C(=O)OCC
inactive: dose: 4.0 mg/kg/injection, schedule: Q01DX009 (ip), vehicle: saline with Tween-80 109 % of control | dose: 8.0 mg/kg/injection, schedule: Q01DX009 (ip), vehicle: saline with Tween-80 97 % of control | dose: 16.0 mg/kg/injection, schedule: Q01DX009 (ip), vehicle: saline with Tween-80 89 % of control

CN(C)CCN1c2ccccc2Sc2ccccc21
inactive: [12] 110 % of control | [1] 97 % of control | [2] 92 % of control | [13] 97 % of control | [14] 92 % of control

O=C(Nc1ccc(Br)cc1)c1ccc(Cl)c(Cl)c1
inactive: [4] 118 % of control | [5] 114 % of control | [15] 114 % of control

CC(CN(C)C)CN1c2ccccc2CCc2ccccc21 (centres undefined)
inactive: dose: 2.18 mg/kg/injection, schedule: Q01DX009 (ip), vehicle: saline 106 % of control | dose: 4.37 mg/kg/injection, schedule: Q01DX009 (ip), vehicle: saline 110 % of control | dose: 8.75 mg/kg/injection, schedule: Q01DX009 (ip), vehicle: saline 100 % of control | dose: 17.5 mg/kg/injection, schedule: Q01DX009 (ip), vehicle: saline 91 % of control

O=C1C2(Cl)C3(Cl)C4(Cl)C(Cl)(Cl)C5(Cl)[C@]3(Cl)C1(Cl)[C@]5(Cl)C24Cl (some centres undefined)
inactive: [9] 97 % of control | [10] 105 % of control | dose: 6.25 mg/kg/injection, schedule: Q01DX009 (ip), vehicle: saline with Tween-80 102 % of control | [11] 98 % of control | dose: 12.5 mg/kg/injection, schedule: Q01DX009 (ip), vehicle: saline with Tween-80 106 % of control | [6] 110 % of control

CCn1c(=O)c2[nH]c(Cl)nc2n(CC)c1=O
inactive: dose: 1.25 mg/kg/injection, schedule: Q## X032 (ip), vehicle: water 103 % of control | dose: 2.5 mg/kg/injection, schedule: Q## X032 (ip), vehicle: water 101 % of control | dose: 5.0 mg/kg/injection, schedule: Q## X032 (ip), vehicle: water 103 % of control | dose: 10.0 mg/kg/injection, schedule: Q## X032 (ip), vehicle: water 97 % of control
